How the values were obtained:
Test in all cases: radiometric filter-binding kinase assay, Kinaseprofiler
MAPK11 (human) = MAPK11 (human) (UniProt Q15759); conditions: ATP 45 µM
NEK2 (human) = NEK2 (human) (UniProt P51955); conditions: ATP 120 µM
EPHA5 (human) = EPHA5 (human) (UniProt P54756); conditions: ATP 10 µM
CAMK2G (human) = CAMK2G (human) (UniProt Q13555); conditions: ATP 10 µM
MELK (human) = MELK (human) (UniProt Q14680); conditions: ATP 45 µM
PAK3 (human) = PAK3 (human) (UniProt O75914); conditions: ATP 120 µM
MTOR (human) = MTOR (human) (UniProt P42345); conditions: ATP 70 µM
STK33 (human) = STK33 (human) (UniProt Q9BYT3); conditions: ATP 155 µM
PLK1 (human) = PLK1 (human) (UniProt P53350); conditions: ATP 70 µM
FES (human) = FES (human) (UniProt P07332); conditions: ATP 45 µM
SIK1 (human) = SIK1 (human) (UniProt P57059); conditions: ATP 45 µM
PDGFRB (human) = PDGFRB (human) (UniProt P09619); conditions: ATP 200 µM
PAK6 (human) = PAK6 (human) (UniProt Q9NQU5); conditions: ATP 10 µM
Chain of PAK6 (human) (Q9NQU5 whole entry, looked up): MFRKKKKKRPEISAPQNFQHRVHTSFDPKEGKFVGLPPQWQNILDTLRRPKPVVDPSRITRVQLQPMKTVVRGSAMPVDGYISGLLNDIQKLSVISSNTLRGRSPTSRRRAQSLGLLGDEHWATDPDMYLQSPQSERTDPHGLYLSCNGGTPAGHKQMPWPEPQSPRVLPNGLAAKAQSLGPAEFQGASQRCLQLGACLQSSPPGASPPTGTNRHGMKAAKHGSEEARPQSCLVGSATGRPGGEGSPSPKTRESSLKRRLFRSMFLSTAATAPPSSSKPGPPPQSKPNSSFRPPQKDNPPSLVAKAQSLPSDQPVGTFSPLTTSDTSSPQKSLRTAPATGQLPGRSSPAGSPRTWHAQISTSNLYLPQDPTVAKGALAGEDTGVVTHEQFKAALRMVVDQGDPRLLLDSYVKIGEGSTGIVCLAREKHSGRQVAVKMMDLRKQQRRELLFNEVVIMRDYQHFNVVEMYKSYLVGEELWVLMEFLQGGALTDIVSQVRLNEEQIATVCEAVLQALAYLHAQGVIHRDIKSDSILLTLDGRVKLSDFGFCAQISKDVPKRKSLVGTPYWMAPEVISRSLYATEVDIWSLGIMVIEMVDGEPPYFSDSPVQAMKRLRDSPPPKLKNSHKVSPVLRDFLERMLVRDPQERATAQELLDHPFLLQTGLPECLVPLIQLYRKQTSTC

INSRR (human) = INSRR (human) (UniProt P14616); conditions: ATP 200 µM
[1] = molecular target: PRKAA2 PRKAB1 PRKAG1 (human) (UniProt P54619+P54646+Q9Y478); conditions: ATP 45 µM
NEK6 (human) = NEK6 (human) (UniProt Q9HC98); conditions: ATP 45 µM
ULK2 (human) = ULK2 (human) (UniProt Q8IYT8); conditions: ATP 15 µM
Chain of ULK2 (human) (Q8IYT8 whole entry, looked up): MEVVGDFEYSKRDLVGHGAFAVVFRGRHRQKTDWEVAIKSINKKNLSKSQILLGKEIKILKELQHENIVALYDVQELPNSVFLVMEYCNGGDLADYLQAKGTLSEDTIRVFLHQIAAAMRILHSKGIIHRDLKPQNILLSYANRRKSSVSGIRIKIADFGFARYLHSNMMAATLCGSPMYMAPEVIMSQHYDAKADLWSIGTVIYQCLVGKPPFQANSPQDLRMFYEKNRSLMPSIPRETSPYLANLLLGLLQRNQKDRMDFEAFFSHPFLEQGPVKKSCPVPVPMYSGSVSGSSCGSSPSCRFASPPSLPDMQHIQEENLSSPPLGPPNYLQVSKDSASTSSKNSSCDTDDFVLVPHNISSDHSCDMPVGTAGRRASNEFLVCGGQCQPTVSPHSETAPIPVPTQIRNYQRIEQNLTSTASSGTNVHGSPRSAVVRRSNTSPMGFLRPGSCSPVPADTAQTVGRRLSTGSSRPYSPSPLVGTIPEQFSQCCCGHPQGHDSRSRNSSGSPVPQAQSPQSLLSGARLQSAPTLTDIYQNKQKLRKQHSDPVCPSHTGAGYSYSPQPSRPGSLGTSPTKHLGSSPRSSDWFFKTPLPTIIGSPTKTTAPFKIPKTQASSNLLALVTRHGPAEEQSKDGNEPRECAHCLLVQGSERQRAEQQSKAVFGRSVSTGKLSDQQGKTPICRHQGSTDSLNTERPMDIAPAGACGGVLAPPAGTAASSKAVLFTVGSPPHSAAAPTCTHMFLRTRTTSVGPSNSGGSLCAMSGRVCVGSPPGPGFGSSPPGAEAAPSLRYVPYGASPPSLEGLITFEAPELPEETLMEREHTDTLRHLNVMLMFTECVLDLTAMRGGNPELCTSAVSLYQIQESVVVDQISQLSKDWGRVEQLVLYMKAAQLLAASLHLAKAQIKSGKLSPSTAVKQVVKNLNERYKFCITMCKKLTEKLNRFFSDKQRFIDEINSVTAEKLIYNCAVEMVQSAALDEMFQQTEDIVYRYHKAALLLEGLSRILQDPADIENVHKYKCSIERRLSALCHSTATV

RPS6KA5 KD1 KD2 (human) = RPS6KA5 KD1 KD2 (human) (UniProt O75582); conditions: ATP 90 µM
TAOK1 (human) = TAOK1 (human) (UniProt Q7L7X3); conditions: ATP 10 µM
Chain of TAOK1 (human) (Q7L7X3 whole entry, looked up): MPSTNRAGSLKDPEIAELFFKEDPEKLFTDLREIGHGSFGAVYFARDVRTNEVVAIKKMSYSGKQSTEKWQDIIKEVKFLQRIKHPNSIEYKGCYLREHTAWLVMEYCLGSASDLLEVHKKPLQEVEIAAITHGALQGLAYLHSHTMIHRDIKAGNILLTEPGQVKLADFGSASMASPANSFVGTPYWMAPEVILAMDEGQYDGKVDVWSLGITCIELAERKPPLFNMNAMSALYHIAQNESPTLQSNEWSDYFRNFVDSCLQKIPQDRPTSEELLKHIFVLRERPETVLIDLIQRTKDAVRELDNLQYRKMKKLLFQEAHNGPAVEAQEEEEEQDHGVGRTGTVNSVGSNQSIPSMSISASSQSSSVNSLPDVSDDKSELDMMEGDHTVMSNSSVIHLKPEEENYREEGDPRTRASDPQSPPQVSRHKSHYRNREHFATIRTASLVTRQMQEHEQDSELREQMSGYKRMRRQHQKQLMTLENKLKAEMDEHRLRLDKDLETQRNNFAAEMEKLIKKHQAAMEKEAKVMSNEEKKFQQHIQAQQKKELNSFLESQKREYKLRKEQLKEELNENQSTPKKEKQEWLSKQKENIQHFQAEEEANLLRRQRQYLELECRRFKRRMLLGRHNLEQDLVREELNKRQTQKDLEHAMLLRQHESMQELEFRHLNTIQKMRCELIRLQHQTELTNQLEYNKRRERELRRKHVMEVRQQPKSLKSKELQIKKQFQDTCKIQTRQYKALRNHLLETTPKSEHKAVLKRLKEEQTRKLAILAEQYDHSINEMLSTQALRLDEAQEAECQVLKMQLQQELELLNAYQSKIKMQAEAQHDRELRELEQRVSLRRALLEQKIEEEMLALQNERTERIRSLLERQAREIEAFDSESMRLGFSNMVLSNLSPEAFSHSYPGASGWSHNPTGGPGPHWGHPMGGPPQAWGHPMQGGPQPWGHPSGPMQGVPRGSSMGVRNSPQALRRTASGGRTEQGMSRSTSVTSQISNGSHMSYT

PRKCG (human) = PRKCG (human) (UniProt P05129); conditions: ATP 15 µM
CDK2 CCNA2 (human) = CDK2 CCNA2 (human) (UniProt P24941+P20248); conditions: ATP 45 µM
WNK3 (human) = WNK3 (human) (UniProt Q9BYP7); conditions: ATP 200 µM
MAP2K7 (human) = MAP2K7 (human) (UniProt O14733); conditions: ATP 10 µM
Chain of MAP2K7 (human) (O14733 whole entry, looked up): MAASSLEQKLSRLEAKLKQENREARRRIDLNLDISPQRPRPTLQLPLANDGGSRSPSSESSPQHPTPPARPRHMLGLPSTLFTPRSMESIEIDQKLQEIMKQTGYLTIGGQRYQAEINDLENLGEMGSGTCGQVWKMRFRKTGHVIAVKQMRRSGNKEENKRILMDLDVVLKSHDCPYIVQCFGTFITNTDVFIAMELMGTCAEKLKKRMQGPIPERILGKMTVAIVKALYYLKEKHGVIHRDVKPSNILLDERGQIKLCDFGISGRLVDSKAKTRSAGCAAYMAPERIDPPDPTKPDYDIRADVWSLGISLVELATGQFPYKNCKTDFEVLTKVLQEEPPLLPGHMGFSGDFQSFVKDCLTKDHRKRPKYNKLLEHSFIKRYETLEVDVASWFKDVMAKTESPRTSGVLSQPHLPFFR

ITK (human) = ITK (human) (UniProt Q08881); conditions: ATP 200 µM
PIM2 (human) = PIM2 (human) (UniProt Q9P1W9); conditions: ATP 15 µM
PKN2 (human) = PKN2 (human) (UniProt Q16513); conditions: ATP 15 µM
PRKCI (human) = PRKCI (human) (UniProt P41743); conditions: ATP 155 µM
CDK1 CCNB1 (human) = CDK1 CCNB1 (human) (UniProt P06493+P14635); conditions: ATP 45 µM
PRKCE (human) = PRKCE (human) (UniProt Q02156); conditions: ATP 45 µM
Chain of PRKCE (human) (Q02156 whole entry, looked up): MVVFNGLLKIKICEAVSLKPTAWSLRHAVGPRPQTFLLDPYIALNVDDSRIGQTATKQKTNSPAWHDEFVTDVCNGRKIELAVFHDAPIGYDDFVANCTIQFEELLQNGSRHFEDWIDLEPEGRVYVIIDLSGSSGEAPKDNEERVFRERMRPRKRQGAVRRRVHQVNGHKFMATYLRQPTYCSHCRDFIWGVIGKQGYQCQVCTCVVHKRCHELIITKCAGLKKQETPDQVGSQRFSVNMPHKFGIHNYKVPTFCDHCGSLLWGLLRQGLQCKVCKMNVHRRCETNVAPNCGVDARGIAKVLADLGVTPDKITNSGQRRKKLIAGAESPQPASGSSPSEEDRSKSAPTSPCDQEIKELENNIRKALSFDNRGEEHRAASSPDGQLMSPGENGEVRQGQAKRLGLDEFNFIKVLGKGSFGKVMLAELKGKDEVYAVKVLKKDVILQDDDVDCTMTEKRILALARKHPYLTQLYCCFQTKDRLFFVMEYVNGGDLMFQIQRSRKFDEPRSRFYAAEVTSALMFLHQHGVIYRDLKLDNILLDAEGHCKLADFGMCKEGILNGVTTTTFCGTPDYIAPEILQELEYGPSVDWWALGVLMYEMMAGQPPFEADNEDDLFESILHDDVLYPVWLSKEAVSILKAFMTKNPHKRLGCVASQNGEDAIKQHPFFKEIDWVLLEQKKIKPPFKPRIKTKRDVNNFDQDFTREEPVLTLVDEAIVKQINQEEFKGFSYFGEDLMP

TXK (human) = TXK (human) (UniProt P42681); conditions: ATP 200 µM
CSNK1D (rat) = conditions: accession and sequence are those of the human protein
ZAP70 (human) = ZAP70 (human) (UniProt P43403); conditions: ATP 15 µM

Chain of EPHA5 (human) (P54756 whole entry, looked up): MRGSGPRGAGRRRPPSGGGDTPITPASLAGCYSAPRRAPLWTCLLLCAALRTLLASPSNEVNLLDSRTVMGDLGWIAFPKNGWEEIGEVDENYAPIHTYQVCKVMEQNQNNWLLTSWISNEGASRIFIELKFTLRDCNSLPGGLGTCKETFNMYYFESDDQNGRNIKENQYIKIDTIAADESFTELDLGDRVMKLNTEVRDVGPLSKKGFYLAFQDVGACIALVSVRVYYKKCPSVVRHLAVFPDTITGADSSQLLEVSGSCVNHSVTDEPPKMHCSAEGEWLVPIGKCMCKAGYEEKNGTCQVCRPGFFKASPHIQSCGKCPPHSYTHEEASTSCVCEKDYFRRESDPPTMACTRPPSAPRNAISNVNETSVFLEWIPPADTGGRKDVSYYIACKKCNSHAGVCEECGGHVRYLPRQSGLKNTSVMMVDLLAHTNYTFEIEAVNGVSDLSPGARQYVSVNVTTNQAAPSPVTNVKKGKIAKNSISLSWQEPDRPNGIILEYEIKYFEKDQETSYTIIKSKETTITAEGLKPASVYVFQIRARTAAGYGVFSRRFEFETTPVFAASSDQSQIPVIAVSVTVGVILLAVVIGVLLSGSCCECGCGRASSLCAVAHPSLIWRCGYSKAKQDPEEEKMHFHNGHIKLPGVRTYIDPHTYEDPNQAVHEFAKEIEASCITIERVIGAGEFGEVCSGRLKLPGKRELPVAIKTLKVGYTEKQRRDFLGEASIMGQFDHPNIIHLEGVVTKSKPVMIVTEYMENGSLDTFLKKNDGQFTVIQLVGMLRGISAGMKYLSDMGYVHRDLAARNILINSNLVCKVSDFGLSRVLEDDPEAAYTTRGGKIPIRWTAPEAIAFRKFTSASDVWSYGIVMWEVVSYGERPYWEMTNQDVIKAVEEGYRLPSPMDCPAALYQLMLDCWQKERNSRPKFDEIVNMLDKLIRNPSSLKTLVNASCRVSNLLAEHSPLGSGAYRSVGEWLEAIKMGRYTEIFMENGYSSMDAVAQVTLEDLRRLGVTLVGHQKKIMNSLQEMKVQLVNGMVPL

In the case of `O=C1c2ccccc2-c2n[nH]c3cccc1c23`, the residual activity (MAPK11 (human); compound 1.0 µM) is reported as 88%, the residual activity (MAPK11 (human); compound 10.0 µM) is reported as 79% and the residual activity (NEK2 (human); compound 1.0 µM) is reported as 86%. It also gave a residual activity (NEK2 (human); compound 10.0 µM) of 81%, a residual activity (EPHA5 (human); compound 1.0 µM) of 115% and a residual activity (EPHA5 (human); compound 10.0 µM) of 63%. The residual activity (CAMK2G (human); compound 1.0 µM) was 37%, the residual activity (CAMK2G (human); compound 10.0 µM) was 8% and the residual activity (MELK (human); compound 1.0 µM) was 13%. It also gave a residual activity (MELK (human); compound 10.0 µM) of 0%, a residual activity (PAK3 (human); compound 1.0 µM) of 85% and a residual activity (PAK3 (human); compound 10.0 µM) of 96%. The residual activity (MTOR (human); compound 1.0 µM) was 104%, the residual activity (MTOR (human); compound 10.0 µM) was 77% and the residual activity (STK33 (human); compound 1.0 µM) was 61%. The residual activity (STK33 (human); compound 10.0 µM) was 16%, the residual activity (PLK1 (human); compound 1.0 µM) was 69% and the residual activity (PLK1 (human); compound 10.0 µM) was 64%. The residual activity (FES (human); compound 1.0 µM) was 34%, the residual activity (FES (human); compound 10.0 µM) was 6% and the residual activity (SIK1 (human); compound 1.0 µM) was 96%. For the same compound, the residual activity (SIK1 (human); compound 10.0 µM) was 48%, the residual activity (PDGFRB (human); compound 1.0 µM) was 99% and the residual activity (PDGFRB (human); compound 10.0 µM) was 96%. It also gave a residual activity (PAK6 (human); compound 1.0 µM) of 91%, a residual activity (PAK6 (human); compound 10.0 µM) of 49% and a residual activity (INSRR (human); compound 1.0 µM) of 102%. It also gave a residual activity (INSRR (human); compound 10.0 µM) of 51%, a residual activity ([1]; compound 1.0 µM) of 69% and a residual activity ([1]; compound 10.0 µM) of 28%. For the same compound, the residual activity (NEK6 (human); compound 1.0 µM) was 107%, the residual activity (NEK6 (human); compound 10.0 µM) was 101% and the residual activity (ULK2 (human); compound 1.0 µM) was 90%. For the same compound, the residual activity (ULK2 (human); compound 10.0 µM) was 45%, the residual activity (RPS6KA5 KD1 KD2 (human); compound 1.0 µM) was 93% and the residual activity (RPS6KA5 KD1 KD2 (human); compound 10.0 µM) was 69%. It also gave a residual activity (TAOK1 (human); compound 1.0 µM) of 69%, a residual activity (TAOK1 (human); compound 10.0 µM) of 25% and a residual activity (PRKCG (human); compound 1.0 µM) of 73%. For the same compound, the residual activity (PRKCG (human); compound 10.0 µM) was 30%, the residual activity (CDK2 CCNA2 (human); compound 1.0 µM) was 59% and the residual activity (CDK2 CCNA2 (human); compound 10.0 µM) was 36%. The residual activity (WNK3 (human); compound 1.0 µM) was 87%, the residual activity (WNK3 (human); compound 10.0 µM) was 77% and the residual activity (MAP2K7 (human); compound 1.0 µM) was 58%. It also gave a residual activity (MAP2K7 (human); compound 10.0 µM) of 6%, a residual activity (ITK (human); compound 1.0 µM) of 67% and a residual activity (ITK (human); compound 10.0 µM) of 21%. It also gave a residual activity (PIM2 (human); compound 1.0 µM) of 58%, a residual activity (PIM2 (human); compound 10.0 µM) of 21% and a residual activity (PKN2 (human); compound 1.0 µM) of 74%. It also gave a residual activity (PKN2 (human); compound 10.0 µM) of 32%, a residual activity (PRKCI (human); compound 1.0 µM) of 117% and a residual activity (PRKCI (human); compound 10.0 µM) of 107%. The residual activity (CDK1 CCNB1 (human); compound 1.0 µM) was 52%, the residual activity (CDK1 CCNB1 (human); compound 10.0 µM) was 35% and the residual activity (PRKCE (human); compound 1.0 µM) was 101%. For the same compound, the residual activity (PRKCE (human); compound 10.0 µM) was 84%, the residual activity (TXK (human); compound 1.0 µM) was 58% and the residual activity (TXK (human); compound 10.0 µM) was 23%. The residual activity (CSNK1D (rat); compound 1.0 µM) was 5%, the residual activity (CSNK1D (rat); compound 10.0 µM) was 1% and the residual activity (ZAP70 (human); compound 1.0 µM) was 94%. The residual activity (ZAP70 (human); compound 10.0 µM) was 98%.

— the kinase profiling compilation of Christmann-Franck et al. (2016)
